Experimental data taken from ChEMBL document CHEMBL1201862, “PubChem BioAssay data set” (2004).
Calls of active or inactive are those of the source.

Assays:
[1] = biological target: T1, Adenosylmethionine-8-amino-7-oxononanoate aminotransferase (Mycobacterium tuberculosis, UniProt P9WQ81); experiment: Mycobacterium tuberculosis BioA enzyme inhibitor Measured in Biochemical System Using Plate Reader - 2163-02_Inhibitor_Dose_CherryPick_Activity.; format: functional, Mycobacterium tuberculosis UT205
T1 sequence (P9WQ81 whole entry): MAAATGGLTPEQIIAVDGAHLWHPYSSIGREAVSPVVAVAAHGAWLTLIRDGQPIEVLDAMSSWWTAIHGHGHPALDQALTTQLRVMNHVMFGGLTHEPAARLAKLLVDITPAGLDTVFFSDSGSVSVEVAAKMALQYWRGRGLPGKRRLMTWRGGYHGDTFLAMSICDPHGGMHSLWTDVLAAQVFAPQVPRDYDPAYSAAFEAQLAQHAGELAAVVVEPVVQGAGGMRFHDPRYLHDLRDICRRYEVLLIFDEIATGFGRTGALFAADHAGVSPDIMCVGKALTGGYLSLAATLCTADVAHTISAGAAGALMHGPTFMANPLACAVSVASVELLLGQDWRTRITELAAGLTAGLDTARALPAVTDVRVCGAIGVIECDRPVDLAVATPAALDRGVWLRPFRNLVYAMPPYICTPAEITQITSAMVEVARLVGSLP

Streptokinase A = biological target: T2, Streptokinase A (Streptococcus pyogenes serotype M1, UniProt P10520); experiment: S. pyogenes streptokinase expression inhibitors, potency, dose response, plasminogen activation absorbance, OD405 (AID 1914); format: functional, Streptococcus pyogenes M1 GAS;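 further: secreted streptokinase activity via plasminogen activation per viability signal from cell pellet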
T2 sequence (P10520 whole entry): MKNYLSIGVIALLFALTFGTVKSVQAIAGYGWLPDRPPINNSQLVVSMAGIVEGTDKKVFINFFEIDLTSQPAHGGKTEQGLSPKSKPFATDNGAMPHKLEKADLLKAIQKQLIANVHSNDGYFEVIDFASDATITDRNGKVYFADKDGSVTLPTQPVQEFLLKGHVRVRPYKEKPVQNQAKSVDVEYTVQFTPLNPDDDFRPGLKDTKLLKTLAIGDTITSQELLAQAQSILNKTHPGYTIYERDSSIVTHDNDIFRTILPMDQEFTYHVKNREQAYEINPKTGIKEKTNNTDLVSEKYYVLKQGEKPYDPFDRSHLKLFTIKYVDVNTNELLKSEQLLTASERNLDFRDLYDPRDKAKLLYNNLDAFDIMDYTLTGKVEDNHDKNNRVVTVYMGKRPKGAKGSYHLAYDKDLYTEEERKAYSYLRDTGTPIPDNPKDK

Streptococcus = experiment: Group A Streptococcus viability loss, dose response, counter-screen for streptokinase expression inhibitor project, luminescence, BacTiterGlo (AID 1915); format: functional, organism-based;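 further: potency for reduction of bacterial viability or growth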
Albumin = Albumin (Bos taurus, UniProt P02769); experiment: Counterscreen for inhibitors of T-cell receptor (TCR)-CD3 interaction: Fluorescence-based biochemical high throughput dose response assay to identify inhibitors of T-cell receptor (TCR)-CD3 interaction using a TAMRA-labeled BSA probe.; format: functional
Albumin, sequence (P02769 whole entry): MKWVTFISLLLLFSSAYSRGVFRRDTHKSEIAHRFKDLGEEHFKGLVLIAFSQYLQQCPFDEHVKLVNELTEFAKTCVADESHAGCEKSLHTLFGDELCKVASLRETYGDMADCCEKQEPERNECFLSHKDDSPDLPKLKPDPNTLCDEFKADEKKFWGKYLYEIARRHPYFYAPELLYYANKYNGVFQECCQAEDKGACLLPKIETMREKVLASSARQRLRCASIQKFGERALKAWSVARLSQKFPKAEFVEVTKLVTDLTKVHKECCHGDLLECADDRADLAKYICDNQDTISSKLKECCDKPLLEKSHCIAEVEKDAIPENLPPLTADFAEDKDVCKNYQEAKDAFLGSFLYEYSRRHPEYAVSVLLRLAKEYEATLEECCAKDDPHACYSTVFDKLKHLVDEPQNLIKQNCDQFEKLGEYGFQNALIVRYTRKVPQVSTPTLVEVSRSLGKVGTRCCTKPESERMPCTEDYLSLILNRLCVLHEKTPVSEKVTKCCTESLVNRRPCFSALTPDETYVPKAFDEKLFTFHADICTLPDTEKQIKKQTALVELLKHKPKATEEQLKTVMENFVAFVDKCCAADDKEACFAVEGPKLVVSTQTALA

[2] = test system: Streptococcus sp. 'group A'; experiment: growth inhibition of control SK(-) GAS strain, dose response, counter-screen for streptokinase expression inhibitor project, luminescence, kanamycin, BacTiterGlo, confirmation (AID 1900); format: functional, organism-based
H9c2 = experiment: cells; format: functional, cell-based; details: Rattus norvegicus, H9c2, Myocardium;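 further: confirmatory concentration-response retest of ultra-high-throughput screening hits for modulation of myocardial damage; cell death induced by hydrogen peroxide oxidative stress; compound pretreatment for 60 min then peroxide exposure for 2 h; potency is for protecting the cells against peroxide damage rather than for killing them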
[3] = biological target: Potassium channel subfamily K member 9 (Homo sapiens, UniProt Q9NPC2); experiment: TASK3 (KCNK9) channel inhibitors, thallium flux, SAR follow-up, selectivity assay for TASK1 inhibitor project, cell-based, FluxOR thallium flux, concentration-response (AID 652211); format: functional;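 further: potency is for inhibitors of the channel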
Potassium channel subfamily K member 9, sequence (Q9NPC2 whole entry): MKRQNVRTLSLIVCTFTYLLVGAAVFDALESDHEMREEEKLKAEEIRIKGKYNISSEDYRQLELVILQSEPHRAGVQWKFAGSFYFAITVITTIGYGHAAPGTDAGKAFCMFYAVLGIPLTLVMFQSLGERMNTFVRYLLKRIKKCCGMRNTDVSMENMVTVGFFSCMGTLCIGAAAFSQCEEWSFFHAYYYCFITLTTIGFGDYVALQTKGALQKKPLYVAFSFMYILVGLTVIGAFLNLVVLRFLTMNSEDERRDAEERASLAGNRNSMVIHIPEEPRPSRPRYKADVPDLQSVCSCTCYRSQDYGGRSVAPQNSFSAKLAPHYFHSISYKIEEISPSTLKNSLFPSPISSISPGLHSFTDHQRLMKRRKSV

Vero [4] = experiment: cells; format: functional, cell-based; details: Chlorocebus sabaeus
Vero [5] = experiment: cells; format: functional; details: Chlorocebus sabaeus
[6] = Counterscreen for inhibitors of Trypanosoma brucei methionyl tRNA synthetase (MetRS): Luminescence-based cell-based high throughput dose response assay to identify compounds that are cytotoxic to Jurkat human T lymphocyte cells.; format: functional
[7] = biological target: T3, Methionyl-tRNA synthetase, putative (Trypanosoma brucei brucei, UniProt Q38C91); format: functional, Trypanosoma brucei brucei strain 927/4 GUTat10.1
T3 sequence (Q38C91 whole entry): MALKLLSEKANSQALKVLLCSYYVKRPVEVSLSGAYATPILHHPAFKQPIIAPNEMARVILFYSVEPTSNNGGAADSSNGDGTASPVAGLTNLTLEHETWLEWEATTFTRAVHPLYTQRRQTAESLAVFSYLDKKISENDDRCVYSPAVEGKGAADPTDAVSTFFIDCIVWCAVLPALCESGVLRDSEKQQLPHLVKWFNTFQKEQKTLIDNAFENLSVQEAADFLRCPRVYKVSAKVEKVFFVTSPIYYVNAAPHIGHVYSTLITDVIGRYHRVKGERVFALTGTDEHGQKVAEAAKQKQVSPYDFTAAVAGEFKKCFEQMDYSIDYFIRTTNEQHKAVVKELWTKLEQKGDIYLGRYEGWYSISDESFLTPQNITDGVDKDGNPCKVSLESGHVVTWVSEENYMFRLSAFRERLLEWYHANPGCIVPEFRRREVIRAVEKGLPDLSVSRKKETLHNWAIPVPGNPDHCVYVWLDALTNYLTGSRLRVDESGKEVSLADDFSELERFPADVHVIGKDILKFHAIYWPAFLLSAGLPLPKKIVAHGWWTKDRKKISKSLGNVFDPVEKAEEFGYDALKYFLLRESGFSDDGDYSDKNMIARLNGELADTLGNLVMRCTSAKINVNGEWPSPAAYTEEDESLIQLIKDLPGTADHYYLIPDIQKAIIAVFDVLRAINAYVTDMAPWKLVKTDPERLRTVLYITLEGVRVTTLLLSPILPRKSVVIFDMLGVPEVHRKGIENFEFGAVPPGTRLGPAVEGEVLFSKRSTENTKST

[8] = biological target: T3, Methionyl-tRNA synthetase, putative; format: functional, Trypanosoma brucei brucei strain 927/4 GUTat10.1; remark: listed apart in the source
[9] = intracellular Trypanosoma cruzi inhibitors in host cells – cell-based, plate reader, cherry-pick samples, set 3, dose response (AID 651818); format: functional;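 further: compounds incubated with infected cells for about four days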
Cytochrome P450 3A4 = Cytochrome P450 3A4 (Homo sapiens, UniProt P08684);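 further: CYP3A4 tested as one member of a cytochrome P450 panel screen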
Cytochrome P450 3A4, sequence (P08684 whole entry): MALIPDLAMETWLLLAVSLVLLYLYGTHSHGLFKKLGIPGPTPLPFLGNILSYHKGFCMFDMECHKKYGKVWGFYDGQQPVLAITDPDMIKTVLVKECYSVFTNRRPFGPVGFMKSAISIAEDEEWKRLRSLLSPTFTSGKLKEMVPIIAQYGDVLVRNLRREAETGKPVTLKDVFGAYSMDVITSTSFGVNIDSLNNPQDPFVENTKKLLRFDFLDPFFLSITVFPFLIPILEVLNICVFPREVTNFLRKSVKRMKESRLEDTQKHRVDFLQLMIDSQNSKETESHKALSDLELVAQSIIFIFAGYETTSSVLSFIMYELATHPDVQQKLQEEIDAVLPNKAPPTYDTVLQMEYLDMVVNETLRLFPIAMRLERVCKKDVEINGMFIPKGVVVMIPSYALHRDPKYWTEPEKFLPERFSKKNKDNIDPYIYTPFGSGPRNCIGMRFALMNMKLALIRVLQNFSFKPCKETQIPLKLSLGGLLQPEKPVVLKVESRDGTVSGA

Cytochrome P450 2D6 = Cytochrome P450 2D6 (Homo sapiens, UniProt P10635);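 further: CYP2D6 member of a cytochrome P450 panel assay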
Cytochrome P450 2D6, sequence (P10635 whole entry): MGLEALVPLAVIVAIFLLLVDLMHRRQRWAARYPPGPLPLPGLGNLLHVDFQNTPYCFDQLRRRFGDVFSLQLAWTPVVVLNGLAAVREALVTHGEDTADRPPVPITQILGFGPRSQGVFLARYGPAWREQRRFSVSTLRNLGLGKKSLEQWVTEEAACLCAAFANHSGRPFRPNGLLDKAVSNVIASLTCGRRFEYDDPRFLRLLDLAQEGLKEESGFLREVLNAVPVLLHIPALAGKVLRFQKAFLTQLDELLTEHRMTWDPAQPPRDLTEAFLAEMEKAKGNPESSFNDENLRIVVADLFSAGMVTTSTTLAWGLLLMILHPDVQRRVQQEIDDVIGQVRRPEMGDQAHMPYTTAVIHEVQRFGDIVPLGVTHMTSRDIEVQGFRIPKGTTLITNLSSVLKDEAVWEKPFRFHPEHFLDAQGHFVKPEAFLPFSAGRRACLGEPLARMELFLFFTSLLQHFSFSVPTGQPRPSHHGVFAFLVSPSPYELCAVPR

[10] = biological target: T4, Apoptotic protease-activating factor 1 (Homo sapiens, UniProt O14727); format: functional
T4 sequence (O14727 whole entry): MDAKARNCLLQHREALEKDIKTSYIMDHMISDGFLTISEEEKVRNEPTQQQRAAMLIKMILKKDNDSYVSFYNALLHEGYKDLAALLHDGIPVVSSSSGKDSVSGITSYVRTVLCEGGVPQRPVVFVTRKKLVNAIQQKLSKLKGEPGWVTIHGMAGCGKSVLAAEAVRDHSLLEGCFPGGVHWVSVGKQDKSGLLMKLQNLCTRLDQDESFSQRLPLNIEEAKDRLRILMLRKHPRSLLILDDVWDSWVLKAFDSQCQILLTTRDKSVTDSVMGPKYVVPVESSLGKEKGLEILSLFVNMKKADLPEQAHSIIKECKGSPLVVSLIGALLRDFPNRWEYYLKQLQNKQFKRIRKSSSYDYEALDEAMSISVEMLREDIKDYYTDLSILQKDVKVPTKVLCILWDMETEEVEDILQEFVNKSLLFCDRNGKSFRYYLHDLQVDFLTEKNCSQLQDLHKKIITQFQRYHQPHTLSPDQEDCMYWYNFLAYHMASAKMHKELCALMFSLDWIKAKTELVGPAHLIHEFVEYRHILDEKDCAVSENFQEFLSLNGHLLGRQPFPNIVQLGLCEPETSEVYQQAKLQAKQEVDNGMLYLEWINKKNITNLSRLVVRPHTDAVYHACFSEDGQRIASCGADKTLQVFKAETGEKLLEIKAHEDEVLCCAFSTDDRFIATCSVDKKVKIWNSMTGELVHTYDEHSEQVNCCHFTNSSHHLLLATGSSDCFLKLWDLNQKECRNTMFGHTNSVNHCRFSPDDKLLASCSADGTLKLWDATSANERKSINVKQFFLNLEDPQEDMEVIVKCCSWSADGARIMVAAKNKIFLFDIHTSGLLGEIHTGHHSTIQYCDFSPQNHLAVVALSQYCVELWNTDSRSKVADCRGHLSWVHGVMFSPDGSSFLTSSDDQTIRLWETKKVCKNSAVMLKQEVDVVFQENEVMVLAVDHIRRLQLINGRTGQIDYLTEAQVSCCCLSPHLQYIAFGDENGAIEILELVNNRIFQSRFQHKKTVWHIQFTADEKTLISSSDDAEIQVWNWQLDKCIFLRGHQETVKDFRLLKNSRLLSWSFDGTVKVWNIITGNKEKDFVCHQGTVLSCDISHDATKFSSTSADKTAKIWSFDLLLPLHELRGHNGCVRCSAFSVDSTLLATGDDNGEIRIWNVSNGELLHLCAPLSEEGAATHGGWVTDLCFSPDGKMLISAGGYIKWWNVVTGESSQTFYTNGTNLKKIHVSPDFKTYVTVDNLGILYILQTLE

Cytochrome P450 1A2 = biological target: T5, Cytochrome P450 1A2 (Homo sapiens, UniProt P05177);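 further: PubChem cytochrome P450 panel assay, CYP1A2 panel member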
T5 sequence (P05177 whole entry): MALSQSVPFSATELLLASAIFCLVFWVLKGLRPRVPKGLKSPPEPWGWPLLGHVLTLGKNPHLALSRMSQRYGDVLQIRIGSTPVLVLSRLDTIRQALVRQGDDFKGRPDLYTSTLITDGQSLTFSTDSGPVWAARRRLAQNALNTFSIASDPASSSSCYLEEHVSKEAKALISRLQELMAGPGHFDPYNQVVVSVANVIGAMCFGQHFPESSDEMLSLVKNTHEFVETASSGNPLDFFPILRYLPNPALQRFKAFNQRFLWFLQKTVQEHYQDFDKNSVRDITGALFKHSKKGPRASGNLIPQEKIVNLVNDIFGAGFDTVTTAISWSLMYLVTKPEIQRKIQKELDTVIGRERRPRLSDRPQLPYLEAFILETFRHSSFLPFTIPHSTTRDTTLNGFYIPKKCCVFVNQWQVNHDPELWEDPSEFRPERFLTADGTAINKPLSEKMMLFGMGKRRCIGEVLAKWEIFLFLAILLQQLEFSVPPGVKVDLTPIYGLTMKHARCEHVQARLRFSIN

Structure (SMILES): CCc1nc2ccc(Br)cc2c(=O)n1-c1ccccc1C(F)(F)F
- AC50 [1]: 0.966 µM (active)

Structure (SMILES): Cc1cc(C)c(C)c(S(=O)(=O)N2CCC(C(=O)NNC(=O)c3ccccc3O)CC2)c1C
- EC50 (Streptokinase A): > 150 µM (not active)
- EC50 (Streptococcus): > 150 µM (not active)
- IC50 (Albumin): > 94.1 µM (inactive)
- EC50 [2]: 17 µM (active)
- IC50 (H9c2): 31.7 µM (inactive)

Structure (SMILES): O=C1NC(=S)NC1=Cc1ccco1
- IC50 (Albumin): > 94.1 µM (inactive)

Structure (SMILES): CC(C)Oc1ccccc1C(=O)Nc1cccc(NC(=O)c2ccccc2OC(F)(F)F)c1
- IC50 [3]: 0.07 µM (active)

Structure (SMILES): O=C(c1cccc(S(=O)(=O)N2CCc3ccccc32)c1)N1CCN(c2ccccn2)CC1
- IC50 (Vero [4]): 6.82 µM (active)
- CC50 (Vero [5]): 18.9 µM (active)

Structure (SMILES): C/C(=N/OCO/N=C(\C)c1ccccc1)c1ccccc1
- IC50 (Vero [4]): > 25 µM (active)

Structure (SMILES): COc1cccc(NC(=O)CN(C)CC(=O)Nc2ccc(Br)cc2)c1
- IC50 [6]: 83.3 µM (inactive)
- IC50 [7]: 51.2 µM (inactive)
- IC50 [8]: 13.2 µM (inactive)

Structure (SMILES): CS(=O)(=O)N1[C@H](C(=O)NCc2ccncc2)[C@@H](CO)[C@@H]2Cn3c(ccc(C4=CCCCC4)c3=O)[C@@H]21
- AC50 [1]: 6.52 µM (active)

Structure (SMILES): CCOc1ccc(CCNC(=O)c2cnc(C)cn2)cc1OCC
- AC50 [1]: 2.54 µM (active)

Structure (SMILES): C[C@H](CO)N1C[C@H](C)[C@H](CN(C)Cc2ccc(Oc3ccccc3)cc2)Oc2c(NC(=O)Nc3cccc4ccccc34)cccc2C1=O
- AC50 [9]: 3.24 µM (active)

Structure (SMILES): COc1ccc(-c2nc3cnc(N4CCN(C)CC4)nc3n(CCc3ccccc3)c2=O)cc1
- AC50 (Cytochrome P450 3A4): inconclusive
- AC50 (Cytochrome P450 2D6): 25.1 µM (inconclusive)

Structure (SMILES): O=C(Nc1ncc2c(n1)CC(c1cccc(Cl)c1)CC2=O)c1ccco1 (stereo unspecified)
- AC50 [1]: 1.95 µM (active)

Structure (SMILES): O=C(COC(=O)CCCOc1ccc(Cl)cc1Cl)NCc1ccccc1
- IC50 [6]: 83.3 µM (inactive)
- IC50 [7]: 11.3 µM (inactive)
- IC50 [8]: 16.4 µM (inactive)

Structure (SMILES): C[C@@H]1CN([C@H](C)CO)C(=O)Cc2cc(NS(=O)(=O)c3cccs3)ccc2O[C@@H]1CN(C)Cc1ccc(C(=O)Nc2ccccc2N)cc1
- AC50 [9]: 4.03 µM (active)

Structure (SMILES): COc1ccccc1C(=O)Nc1cccc(NC(=O)c2ccccc2C(C)C)c1
- IC50 [3]: 0.74 µM (active)

Structure (SMILES): Cc1ccc(S(=O)(=O)N2CCC(C(=O)NNC(=O)c3ccccc3O)CC2)cc1
- IC50 (Albumin): > 94.1 µM (inactive)

Structure (SMILES): N#Cc1c(N(CCO)CCO)nc(N)c2c(N)nc3c(c12)CC(=O)N3Cc1cccs1
- IC50 [10]: 20.7 µM (active)

Structure (SMILES): C[C@@H]1CN([C@H](C)CO)C(=O)Cc2cc(NC(=O)Cc3cn(C)c4ccccc34)ccc2O[C@H]1CN(C)Cc1ccc(C(F)(F)F)cc1
- AC50 [9]: 3.42 µM (active)

Structure (SMILES): C[C@H]1CN([C@@H](C)CO)C(=O)Cc2cc(NC(=O)Nc3ccc(C(F)(F)F)cc3)ccc2O[C@H]1CN(C)Cc1ccc2c(c1)OCO2
- AC50 [9]: 4.99 µM (active)

Structure (SMILES): COc1cc(C(=O)N2CCN(C(=O)c3ccccc3)CC2)cc(OC)c1OC
- AC50 (Cytochrome P450 3A4): inconclusive
- AC50 (Cytochrome P450 1A2): 2.51 µM (inconclusive)
